Data as given in publication PMC2896318 (Biochemistry, 2009).
Read-outs that look alike come from different tables or passages of the source.

Columns and labels:
[1] = Spontaneous hydrolysis of diaroyl phosphates in buffer; assay type: physicochemical; details: values are ko × 10^6; 25 mM MOPS buffer, pH 7.5, 25 °C
[2] = target: Escherichia coli W3310 TEM-2 β-lactamase (Escherichia coli, UniProt P62593, Q37K); assay: Inhibition and turnover kinetics with TEM-2 β-lactamase; assay type: biochemical; details: for TEM k2 × 10^3 (deacylation rate constant): values are k2 × 10^3, pH 7.5, 25 °C
OXA-1 β-lactamase = OXA-1 β-lactamase (Escherichia coli, UniProt P13661); assay: Inhibition of class D β-lactamase OXA-1; assay type: biochemical
Chain of OXA-1 β-lactamase (P13661 26-276): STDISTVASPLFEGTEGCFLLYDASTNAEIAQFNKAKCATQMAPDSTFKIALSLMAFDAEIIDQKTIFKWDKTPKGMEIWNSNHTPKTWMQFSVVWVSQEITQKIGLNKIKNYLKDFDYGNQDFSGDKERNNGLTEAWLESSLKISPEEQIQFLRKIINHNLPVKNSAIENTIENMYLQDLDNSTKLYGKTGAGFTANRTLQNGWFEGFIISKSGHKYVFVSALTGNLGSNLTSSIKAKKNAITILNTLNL

[3] = target: T1, Enterobacter cloacae P99 β-lactamase (Enterobacter cloacae, UniProt P05364); details: for Ki: read-out: P99 K1
T1 sequence (P05364 21-381): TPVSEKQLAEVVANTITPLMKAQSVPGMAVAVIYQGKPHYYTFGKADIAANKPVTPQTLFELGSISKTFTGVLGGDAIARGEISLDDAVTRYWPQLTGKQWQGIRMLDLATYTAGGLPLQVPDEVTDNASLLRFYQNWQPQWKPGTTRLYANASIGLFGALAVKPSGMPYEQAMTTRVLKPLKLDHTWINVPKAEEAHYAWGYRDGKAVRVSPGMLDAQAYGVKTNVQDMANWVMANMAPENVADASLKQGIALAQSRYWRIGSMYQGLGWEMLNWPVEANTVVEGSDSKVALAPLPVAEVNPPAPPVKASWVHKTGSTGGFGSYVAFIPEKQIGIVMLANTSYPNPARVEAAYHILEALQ

[4] = target: T1, Enterobacter cloacae P99 β-lactamase; assay: biochemical
[5] = target: T1, Enterobacter cloacae P99 β-lactamase; details: previously determined ratio; cited from earlier work
[6] = footnote b: calculated from ki = k2/Ki
[7] = high inhibitor concentrations (>100 μM)

Row | Structure (SMILES) | ko × 10^6 (spontaneous hydrolysis rate constant) [1] [s^−1] | TEM ki (acylation rate constant) [2, 6] | TEM k2 × 10^3 (deacylation rate constant) [2] [s^−1] | Ki (OXA-1 β-lactamase) [µM] | P99 k2 × 10^3 (deacylation rate constant) ([3]; values are k2 × 10^3, pH 7.5, 25 °C) [s^−1] | Ki [4] [µM] | Ki (OXA-1 β-lactamase; read-out: Ki for OXA-1, class D β-lactamase) [µM] | P99 ki (acylation rate constant) [3] | P99 k2 × 10^3 (deacylation rate constant) ([3]; pH 7.5) [s^−1] | Ki [3] [µM] | k3 (rearrangement of EI to more inert EI′, Scheme 5) [2, 7] | k4 (breakdown of EI′ to free enzyme, Scheme 5) [2, 7] [s⁻¹] | TEM ki (acylation rate constant) ([2]; pH 7.5, 20 mM MOPS, 25 °C, from progress curve fits) [s⁻¹ mM⁻¹] | Ki ([2]; read-out: TEM Ki, footnote a: calculated from Ki = k2/ki) [µM] | P99 ki (acylation rate constant) ([3]; pH 7.5) [s⁻¹ mM⁻¹] | k3/k2 (methanol vs water partitioning of acyl-enzyme) [5]
1 | O=C(OP(=O)([O-])OC(=O)c1cc2ccccc2o1)c1cc2ccccc2o1.[Na+] [compound 12, Sodium bis[2-benzo(b)furancarbonyl] phosphate] | 285 | 1.8 ^b s^−1mM^−1 | 74 ± 1 | 14.2 | 354 ± 26 | 1.3 ± 0.3 |  |  |  |  |  |  |  |  |  | 
2 | O=C(OP(=O)([O-])OC(=O)c1cc2ccccc2s1)c1cc2ccccc2s1.[Na+] [compound 11, Sodium bis[benzo(b)thiophenecarbonyl] phosphate] | 54.1 | 53 ^b s^−1mM^−1 | 79 ± 2 |  |  |  | 0.06 | 69600 ^b s^−1mM^−1 | 211 ± 6 | 0.003 |  |  |  |  |  | 
3 | O=C(OP(=O)(O)OC(=O)c1ccccc1)c1ccccc1 [compound 5, dibenzoyl phosphate] | 0.78 |  | 38 ± 3 |  |  |  |  |  | 9.3 ± 0.2 | 1.33 | (3.3 ± 0.7) × 10^−4 s^−1 | 0.00015 | 0.5 ± 0.1 | 76 | 7 ± 1 | 23.6
